Measured values from ChEMBL document CHEMBL2331278, “Synthesis, pharmacological evaluation and QSAR modeling of mono-substituted 4-phenylpiperidines and 4-phenylpiperazines” (Eur J Med Chem, 2013).
pKi: −log10 of the molar value.

Experiments:
[1] = tested on: Rattus norvegicus; test: Reduction in DOPAC level in Sprague-Dawley rat striatum at 100 umol/kg, sc measured after 1 hr relative to control; assay type: functional
[2] = target: D(2) dopamine receptor (Homo sapiens, UniProt P14416); test: Displacement of [3H]7-OH-DPAT from human D2S receptor high affinity site expressed in HEK293 cells; assay type: cell-based
Chain of D(2) dopamine receptor (P14416 whole entry): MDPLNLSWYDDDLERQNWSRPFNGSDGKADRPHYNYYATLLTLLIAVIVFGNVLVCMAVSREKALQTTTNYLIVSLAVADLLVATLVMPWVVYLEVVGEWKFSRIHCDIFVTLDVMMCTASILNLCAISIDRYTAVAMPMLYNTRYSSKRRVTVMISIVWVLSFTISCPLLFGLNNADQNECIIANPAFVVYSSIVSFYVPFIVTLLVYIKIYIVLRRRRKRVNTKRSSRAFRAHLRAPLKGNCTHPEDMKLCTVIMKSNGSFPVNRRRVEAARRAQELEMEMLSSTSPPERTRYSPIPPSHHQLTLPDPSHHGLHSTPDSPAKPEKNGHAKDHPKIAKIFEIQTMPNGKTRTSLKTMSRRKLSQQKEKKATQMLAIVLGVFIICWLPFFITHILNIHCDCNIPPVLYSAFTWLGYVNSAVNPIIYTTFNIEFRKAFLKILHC

[3] = target: T1, Amine oxidase [flavin-containing] A (Rattus norvegicus, UniProt P21396); test: Displacement of [3H]Ro 41-1049 from rat MAO-A receptor expressed in HEK293 cells; assay type: cell-based; conditions: for pKi: read-out: Ki; for Ki: read-out: pKi (converted)
T1 sequence (P21396 whole entry): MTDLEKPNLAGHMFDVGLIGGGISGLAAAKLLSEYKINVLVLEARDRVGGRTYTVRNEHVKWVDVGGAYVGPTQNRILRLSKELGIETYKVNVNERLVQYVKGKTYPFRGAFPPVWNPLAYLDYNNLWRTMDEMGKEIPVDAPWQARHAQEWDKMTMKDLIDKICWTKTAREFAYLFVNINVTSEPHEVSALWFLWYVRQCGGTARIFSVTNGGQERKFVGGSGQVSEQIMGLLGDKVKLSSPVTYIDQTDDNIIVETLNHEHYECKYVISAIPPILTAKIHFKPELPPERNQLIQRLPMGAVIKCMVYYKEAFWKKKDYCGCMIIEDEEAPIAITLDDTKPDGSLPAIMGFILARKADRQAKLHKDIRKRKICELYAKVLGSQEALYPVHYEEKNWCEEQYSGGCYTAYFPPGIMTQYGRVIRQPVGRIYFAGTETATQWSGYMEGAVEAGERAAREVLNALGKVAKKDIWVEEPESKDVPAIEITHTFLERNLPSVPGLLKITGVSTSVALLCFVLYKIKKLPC

[4] = tested on: Rattus norvegicus; test: Reduction in DOPAC level in Sprague-Dawley rat striatum at 50 umol/kg, sc measured after 1 hr relative to control; assay type: functional; parameters: scale not given: the % may be the effect or the level left
[5] = tested on: Rattus norvegicus; test: Reduction in DOPAC level in Sprague-Dawley rat striatum at 33 umol/kg, sc measured after 1 hr relative to control; assay type: functional; parameters: scale not given: the % may be the effect or the level left

In the case of `CCCN1CCN(c2cccc(OS(=O)(=O)C(F)(F)F)c2)CC1`, the “DOPAC level (% of control)” value [1] was 285%.
`CCCN1CCN(c2ccccc2O)CC1` was tested, and the “DOPAC level (% of control)” value [1] was 270%.
For `CCCN1CCC(c2ccc(Cl)cc2)CC1`, the pKi [2] was 6.05.
For `CCCN1CCN(c2cccc(OC)c2)CC1`, the “DOPAC level (% of control)” value [1] was 255%, the pKi [3] was 4.80 and the pKi [2] was 6.52.
`CCCN1CCN(c2ccc(OC)cc2)CC1` gave a pKi [2] of 5.19.
In the case of `CCCN1CCN(c2ccccc2)CC1`, the “DOPAC level (% of control)” value [1] was 181% and the pKi [2] was 6.33.
`CCCN1CCC(c2cccc(C#N)c2)CC1` was tested, and the “DOPAC level (% of control)” value [1] was 275%.
In the case of `CCCN1CCN(c2cccc(C(C)=O)c2)CC1`, the “DOPAC level (% of control)” value [1] was 221%.
For `CCCN1CCC(c2cccc(OS(=O)(=O)C(F)(F)F)c2)CC1`, the “DOPAC level (% of control)” value [1] was 241%.
With `CCCN1CCN(c2cccc(OS(C)(=O)=O)c2)CC1` the Activity [4] was 254%.
In the case of `CCCN1CCN(c2cccc(S(=O)(=O)c3ccccc3)c2)CC1`, the “DOPAC level (% of control)” value [1] was 152%.
For `CCCN1CCN(c2cccc(S(C)(=O)=O)c2)CC1`, the pKi [3] was 3.90.
In the case of `CCCN1CCC(c2ccccc2)CC1`, the “DOPAC level (% of control)” value [1] was 131% and the pKi [2] was 6.77.
With `CCCN1CCC(c2cccc(S(=O)(=O)C(F)(F)F)c2)CC1` the “DOPAC level (% of control)” value [1] was 258%.
Compound `CCCN1CCN(c2cccc(C(F)(F)F)c2)CC1` has an Activity [4] of 315%.
`CCCN1CCN(c2cccc(C#N)c2)CC1` was tested, and the “DOPAC level (% of control)” value [1] was 314%, the pKi [3] was under 3.23 and the Ki [3] was over 631 µM. For the same compound, the pKi [2] was 6.57.
With `CCCN1CCN(c2cccc(Cl)c2)CC1` the “DOPAC level (% of control)” value [1] was 250%.
`CCCN1CCC(c2cccc(N3CCOCC3)c2)CC1` was tested, and the “DOPAC level (% of control)” value [1] was 105%.
`CCCN1CCC(c2ccccc2OS(=O)(=O)C(F)(F)F)CC1` was tested, and the “DOPAC level (% of control)” value [1] was 270%.
`CCCN1CCC(c2cccc(OC(C)C)c2)CC1` was tested, and the “DOPAC level (% of control)” value [1] was 112%.
`CCCN1CCN(c2cccc(O)c2)CC1` was tested, and the pKi [3] was under 3.23 and the Ki [3] was over 631 µM.
With `CCCN1CCC(c2cccc(C(F)(F)F)c2)CC1` the “DOPAC level (% of control)” value [1] was 260%, the pKi [3] was 3.89 and the pKi [2] was 6.74.
In the case of `CCCN1CCC(c2cccc(S(=O)(=O)C(C)C)c2)CC1`, the “DOPAC level (% of control)” value [1] was 205%.
`CCCN1CCC(c2cccc(OC)c2)CC1` was tested, and the “DOPAC level (% of control)” value [1] was 140%, the pKi [3] was 4.74 and the pKi [2] was 5.82.
`CCCN1CCC(c2ccccc2OC)CC1` showed an Activity [5] of 277%, a pKi [3] of 5.62 and a pKi [2] of 7.92.
For `CCCN1CCC(c2cccc(S(=O)(=O)C3CCCC3)c2)CC1`, the “DOPAC level (% of control)” value [1] was 170%, the pKi [3] was under 3.23 and the Ki [3] was over 631 µM. It also gave a pKi [2] of 5.42.
`CCCN1CCN(c2ccccc2C#N)CC1` showed an Activity [5] of 313%.
For `CCCN1CCN(c2ccccc2OC)CC1`, the “DOPAC level (% of control)” value [1] was 370%, the pKi [3] was under 3.23 and the Ki [3] was over 631 µM. It also gave a pKi [2] of 7.66.
For `CCCN1CCN(c2ccccc2Cl)CC1`, the “DOPAC level (% of control)” value [1] was 368%.
With `CCCN1CCC(c2ccccc2C(F)(F)F)CC1` the “DOPAC level (% of control)” value [1] was 254%.
`CCCN1CCN(c2ccccc2C)CC1` was tested, and the “DOPAC level (% of control)” value [1] was 327%.
`CCCN1CCC(c2ccc(OC)cc2)CC1` was tested, and the pKi [2] was 4.64.
For `CCCN1CCC(c2cccc(C)c2)CC1`, the “DOPAC level (% of control)” value [1] was 115%.
With `CCCN1CCN(c2ccccc2S(C)(=O)=O)CC1` the “DOPAC level (% of control)” value [1] was 283%, the pKi [3] was under 3.23 and the Ki [3] was over 631 µM. The pKi [2] was 6.24.
`CCCN1CCC(c2cccc(OC(C)(C)C)c2)CC1` was tested, and the “DOPAC level (% of control)” value [1] was 196%.
